Assay results: ChEMBL document CHEMBL1128658, “Isolation, structure determination and squalene synthase activity of L-731,120 and L-731,128, alkyl citrate analogs of zaragozic acids A and B” (Bioorg Med Chem Lett, 1995)

Legend:
Squalene synthase = target: T1, Squalene synthase (Rattus norvegicus, UniProt Q02769); experiment: In vitro inhibitory activity against rat squalene synthase
T1 sequence (Q02769 whole entry): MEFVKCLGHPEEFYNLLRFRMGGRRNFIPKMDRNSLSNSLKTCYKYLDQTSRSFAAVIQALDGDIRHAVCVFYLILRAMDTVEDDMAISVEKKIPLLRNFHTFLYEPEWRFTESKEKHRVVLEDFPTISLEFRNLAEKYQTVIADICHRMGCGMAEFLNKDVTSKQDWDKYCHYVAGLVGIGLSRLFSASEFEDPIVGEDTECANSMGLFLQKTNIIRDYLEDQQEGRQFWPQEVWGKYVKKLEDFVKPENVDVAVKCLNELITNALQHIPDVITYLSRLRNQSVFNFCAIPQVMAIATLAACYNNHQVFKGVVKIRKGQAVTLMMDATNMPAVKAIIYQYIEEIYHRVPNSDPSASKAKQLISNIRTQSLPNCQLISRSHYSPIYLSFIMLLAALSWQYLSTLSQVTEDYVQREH

Mus musculus [1] = experiment: In vivo inhibitory activity against mouse hepatic cholesterol synthesis administered orally at 48 mpk; assay type: functional; conditions: po
Mus musculus [2] = species: Mus musculus; experiment: animal or person; assay type: functional; conditions: po
Description: In vivo inhibitory activity against mouse hepatic cholesterol synthesis administered orally at 24 mpk

Mus musculus [3] = experiment: In vivo inhibitory activity against mouse hepatic cholesterol synthesis administered subcutaneously; assay type: functional; conditions: sc
Mus musculus [4] = experiment: In vivo inhibitory activity against mouse hepatic cholesterol synthesis administered orally at 40 mpk; assay type: functional; conditions: po

| Compound | IC50 (Squalene synthase) | inhibition in vivo at 48 mg/kg (Mus musculus [1]) | inhibition in vivo at 24 mg/kg (Mus musculus [2]) | ED50 (Mus musculus [3]) | inhibition in vivo at 40 mg/kg (Mus musculus [4]) |
| --- | --- | --- | --- | --- | --- |
| CCCCCCCCCCCCCCCCC(C(=O)O)C(O)(CC(=O)O)C(=O)O (stereo not drawn) | 9 µM | 0% |  |  |  |
| C=C(CCC12OC(C(=O)O)C(O)(C(=O)O)C(C(=O)O)(O1)[C@H](O)[C@H]2O)[C@@H](OC(C)=O)[C@H](C)Cc1ccccc1 (stereo partly drawn) |  |  | 34% |  |  |
| C/C(=C\C(C)Cc1ccccc1)CCCCCC(C(=O)O)C(O)(CC(=O)O)C(=O)O (stereo not drawn) | 0.26 µM | 0% |  | 15 mg/kg |  |
| C=C(CCC12OC(C(=O)O)C(O)(C(=O)O)C(C(=O)O)(O1)[C@H](OC(=O)/C=C/[C@@H](C)C[C@@H](C)CC)[C@H]2O)[C@@H](OC(C)=O)[C@H](C)Cc1ccccc1 (stereo partly drawn) [ZARAGOZIC ACID A] |  |  |  | 0.2 mg/kg | 20% |
